Columns and labels:
velvetleaf = experiment: Test B pre/postemergence velvetleaf; type: in vivo, Abutilon theophrasti; settings: for Velvetleaf plant response rating: scale of 0 to 10 where 0 is no effect and 10 is complete control
In short: (§1)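 Herbicidal effect was estimated by eye on a ten-point control scale after plants spent twelve to sixteen days in a greenhouse following soil or foliar treatment. Foliar sprays targeted plants at one to four leaves; all doses were formulated in a non-phytotoxic solvent with surfactant.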

wild oat = experiment: Test B pre/postemergence wild oat; type: in vivo, Avena fatua; settings: for Wild oats plant response rating: scale of 0 to 10 where 0 is no effect and 10 is complete control
In short: as §1

wheat = experiment: Test B pre/postemergence wheat; type: in vivo, Triticum aestivum; settings: for Wheat plant response rating: scale of 0 to 10 where 0 is no effect and 10 is complete control
In short: as §1

rice = experiment: Test B flood test rice; type: in vivo, Oryza sativa
In short: (§2)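 Plants were grown to the 2-leaf stage before treatment with test chemical, then held in a greenhouse for twelve to sixteen days. Injury was visually rated against untreated controls on a 0–10 scale, where 0 is no effect and 10 is complete control.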

smallflower flatsedge = experiment: Test B flood test smallflower flatsedge; type: in vivo, Cyperus difformis
In short: as §2

soybean = experiment: Test B pre/postemergence soybean; type: in vivo, Glycine max; settings: for Soybean plant response rating: scale of 0 to 10 where 0 is no effect and 10 is complete control
In short: as §1

purple nutsedge = experiment: Test B pre/postemergence purple nutsedge; type: in vivo, Cyperus rotundus; settings: for Nutsedge plant response rating: scale of 0 to 10 where 0 is no effect and 10 is complete control
In short: as §1

giant foxtail = experiment: Test B pre/postemergence giant foxtail; type: in vivo, Setaria faberii; settings: for Giant foxtail plant response rating: scale of 0 to 10 where 0 is no effect and 10 is complete control
In short: as §1

rape = experiment: Test B pre/postemergence rape; type: in vivo, Brassica napus; settings: for Rape plant response rating: scale of 0 to 10 where 0 is no effect and 10 is complete control
In short: as §1

surinam grass = experiment: Test B pre/postemergence surinam grass; type: in vivo, Brachiaria decumbens
In short: as §1

bedstraw = experiment: Test B pre/postemergence bedstraw; type: in vivo, Galium aparine; settings: Postemergence
In short: as §1

pigweed = experiment: Test B pre/postemergence pigweed; type: in vivo, Amaranthus retroflexus; settings: for Redroot pigweed plant response rating: scale of 0 to 10 where 0 is no effect and 10 is complete control
In short: as §1

corn = experiment: Test B pre/postemergence corn; type: in vivo, Zea mays; settings: for Corn plant response rating: scale of 0 to 10 where 0 is no effect and 10 is complete control
In short: as §1

sugar beet = experiment: Test B pre/postemergence sugar beet; type: in vivo, Beta vulgaris; settings: for Sugarbeets plant response rating: scale of 0 to 10 where 0 is no effect and 10 is complete control
In short: as §1

cocklebur = experiment: Test B pre/postemergence cocklebur; type: in vivo, Xanthium strumarium; settings: for Cocklebur plant response rating: scale of 0 to 10 where 0 is no effect and 10 is complete control
In short: as §1

duck salad = experiment: Test B flood test duck salad; type: in vivo, Heteranthera limosa
In short: as §2

[1] = Postemergence, Rate 125 g/ha, scale 0 to 10, 0 is no effect, 10 is complete control
[2] = Preemergence, Rate 62 g/ha, scale 0 to 10 (0 no effect, 10 complete control)
[3] = Rate 500 g/ha, Postemergence, scale 0 to 10, 0 no effect, 10 complete control
[4] = Postemergence (flood test), Rate 125 g/ha, scale 0 to 10, 0 is no effect, 10 is complete control
[5] = Rate 62 g/ha, Postemergence (flood test species), scale of 0 to 10 where 0 is no effect and 10 is complete control
[6] = Rate 500 g/ha, listed under Postemergence (flood test species), scale 0 to 10, 0 no effect, 10 complete control

With `CC(C)N(C(=O)n1oc(=O)n(C2CCC2)c1=O)c1ccc(Cl)cc1` [Compound 349] the “Plant response rating, Velvetleaf” value (velvetleaf; [1]) was 0, the “Plant response rating, Velvetleaf” value (velvetleaf; [2]) was 0 and the “Velvetleaf plant response rating (0 to 10 scale)” value (velvetleaf; Preemergence, Rate 125 g/ha) was 0. The “Velvetleaf plant response rating” value (velvetleaf; Preemergence, Rate 250 g/ha) was 3, the “Velvetleaf plant response rating” value (velvetleaf; Preemergence, Rate 500 g/ha) was 3 and the “Velvetleaf plant response rating” value (velvetleaf; Rate 62 g/ha, Postemergence) was 0. For the same compound, the “Plant response rating, Velvetleaf” value (velvetleaf; [3]) was 0, the “Plant response rating, Wild oats” value (wild oat; [1]) was 0 and the “Plant response rating, Wild oats” value (wild oat; [2]) was 0. The “Wild oats plant response rating (0 to 10 scale)” value (wild oat; Preemergence, Rate 125 g/ha) was 0, the “Wild oats plant response rating” value (wild oat; Preemergence, Rate 250 g/ha) was 3 and the “Wild oats plant response rating” value (wild oat; Preemergence, Rate 500 g/ha) was 9. For the same compound, the “Wild oats plant response rating” value (wild oat; Rate 62 g/ha, Postemergence) was 0, the “Plant response rating, Wild oats” value (wild oat; [3]) was 3 and the “Plant response rating, Wheat” value (wheat; [1]) was 0. For the same compound, the “Plant response rating, Wheat” value (wheat; [2]) was 0, the “Wheat plant response rating (0 to 10 scale)” value (wheat; Preemergence, Rate 125 g/ha) was 0 and the “Wheat plant response rating” value (wheat; Preemergence, Rate 250 g/ha) was 0. The “Wheat plant response rating” value (wheat; Preemergence, Rate 500 g/ha) was 0, the “Wheat plant response rating” value (wheat; Rate 62 g/ha, Postemergence) was 0 and the “Plant response rating, Wheat” value (wheat; [3]) was 3. For the same compound, the “Plant response rating, Rice” value (rice; [4]) was 0, the “Rice plant response rating” value (rice; [5]) was 0 and the “Plant response rating, Rice” value (rice; [6]) was 0. For the same compound, the “Plant response rating, S. Flatsedge” value (smallflower flatsedge; [4]) was 5, the “S. Flatsedge plant response rating” value (smallflower flatsedge; [5]) was 0 and the “Plant response rating, Soybean” value (soybean; [1]) was 2. The “Plant response rating, Soybean” value (soybean; [2]) was 0, the “Soybean plant response rating (0 to 10 scale)” value (soybean; Preemergence, Rate 125 g/ha) was 0 and the “Soybean plant response rating” value (soybean; Preemergence, Rate 250 g/ha) was 0. For the same compound, the “Soybean plant response rating” value (soybean; Preemergence, Rate 500 g/ha) was 0, the “Soybean plant response rating” value (soybean; Rate 62 g/ha, Postemergence) was 1 and the “Plant response rating, Soybean” value (soybean; [3]) was 2. The “Plant response rating, Nutsedge” value (purple nutsedge; [1]) was 0, the “Plant response rating, Nutsedge” value (purple nutsedge; [2]) was 0 and the “Nutsedge plant response rating (0 to 10 scale)” value (purple nutsedge; Preemergence, Rate 125 g/ha) was 0. The “Nutsedge plant response rating” value (purple nutsedge; Preemergence, Rate 250 g/ha) was 0, the “Nutsedge plant response rating” value (purple nutsedge; Preemergence, Rate 500 g/ha) was 0 and the “Nutsedge plant response rating” value (purple nutsedge; Rate 62 g/ha, Postemergence) was 0. The “Plant response rating, Nutsedge” value (purple nutsedge; [3]) was 0, the “Plant response rating, Giant foxtail” value (giant foxtail; [1]) was 0 and the “Plant response rating, Giant foxtail” value (giant foxtail; [2]) was 8. The “Giant foxtail plant response rating (0 to 10 scale)” value (giant foxtail; Preemergence, Rate 125 g/ha) was 9, the “Giant foxtail plant response rating” value (giant foxtail; Preemergence, Rate 250 g/ha) was 10 and the “Giant foxtail plant response rating” value (giant foxtail; Preemergence, Rate 500 g/ha) was 10. The “Giant foxtail plant response rating” value (giant foxtail; Rate 62 g/ha, Postemergence) was 0, the “Plant response rating, Giant foxtail” value (giant foxtail; [3]) was 9 and the “Plant response rating, Rape” value (rape; [1]) was 0. For the same compound, the “Plant response rating, Rape” value (rape; [2]) was 0, the “Rape plant response rating (0 to 10 scale)” value (rape; Preemergence, Rate 125 g/ha) was 0 and the “Rape plant response rating” value (rape; Preemergence, Rate 250 g/ha) was 0. The “Rape plant response rating” value (rape; Preemergence, Rate 500 g/ha) was 4, the “Rape plant response rating” value (rape; Rate 62 g/ha, Postemergence) was 0 and the “Plant response rating, Rape” value (rape; [3]) was 0. The “Plant response rating, B. signalgrass” value (surinam grass; [1]) was 0, the “B. signalgrass plant response rating” value (surinam grass; Preemergence, Rate 500 g/ha, scale of 0 to 10 where 0 is no effect and 10 is complete control) was 4 and the “B. signalgrass plant response rating” value (surinam grass; Rate 62 g/ha, Postemergence, scale of 0 to 10 where 0 is no effect and 10 is complete control) was 0. For the same compound, the “Plant response rating, B. signalgrass” value (surinam grass; Rate 250 g/ha, Postemergence, scale of 0 to 10 where 0 is no effect and 10 is complete control) was 0, the “Plant response rating, B. signalgrass” value (surinam grass; [3]) was 0 and the “Plant response rating, Bedstraw” value (bedstraw; Rate 125 g/ha, scale 0 to 10, 0 is no effect, 10 is complete control) was 3. The “Bedstraw plant response rating” value (bedstraw; Rate 62 g/ha, scale of 0 to 10 where 0 is no effect and 10 is complete control) was 2, the “Plant response rating, Bedstraw” value (bedstraw; Rate 500 g/ha, scale 0 to 10, 0 no effect, 10 complete control) was 3 and the “Plant response rating, Redroot pigweed” value (pigweed; [1]) was 2. For the same compound, the “Plant response rating, Redroot pigweed” value (pigweed; [2]) was 0, the “Redroot pigweed plant response rating (0 to 10 scale)” value (pigweed; Preemergence, Rate 125 g/ha) was 0 and the “Redroot pigweed plant response rating” value (pigweed; Preemergence, Rate 250 g/ha) was 2. For the same compound, the “Redroot pigweed plant response rating” value (pigweed; Preemergence, Rate 500 g/ha) was 7, the “Redroot pigweed plant response rating” value (pigweed; Rate 62 g/ha, Postemergence) was 0 and the “Plant response rating, Redroot pigweed” value (pigweed; [3]) was 4. For the same compound, the “Plant response rating, Corn” value (corn; [1]) was 0, the “Plant response rating, Corn” value (corn; [2]) was 0 and the “Corn plant response rating (0 to 10 scale)” value (corn; Preemergence, Rate 125 g/ha) was 0. The “Corn plant response rating” value (corn; Preemergence, Rate 250 g/ha) was 0, the “Corn plant response rating” value (corn; Preemergence, Rate 500 g/ha) was 2 and the “Corn plant response rating” value (corn; Rate 62 g/ha, Postemergence) was 0. For the same compound, the “Plant response rating, Corn” value (corn; [3]) was 0, the “Plant response rating, Sugarbeets” value (sugar beet; [1]) was 0 and the “Plant response rating, Sugarbeets” value (sugar beet; [2]) was 0. For the same compound, the “Sugarbeets plant response rating (0 to 10 scale)” value (sugar beet; Preemergence, Rate 125 g/ha) was 2, the “Sugarbeets plant response rating” value (sugar beet; Preemergence, Rate 250 g/ha) was 4 and the “Sugarbeets plant response rating” value (sugar beet; Preemergence, Rate 500 g/ha) was 4. For the same compound, the “Sugarbeets plant response rating” value (sugar beet; Rate 62 g/ha, Postemergence) was 0, the “Plant response rating, Sugarbeets” value (sugar beet; [3]) was 0 and the “Plant response rating, Cocklebur” value (cocklebur; [1]) was 0. The “Plant response rating, Cocklebur” value (cocklebur; [2]) was 0, the “Cocklebur plant response rating (0 to 10 scale)” value (cocklebur; Preemergence, Rate 125 g/ha) was 0 and the “Cocklebur plant response rating” value (cocklebur; Preemergence, Rate 500 g/ha) was 0. The “Cocklebur plant response rating” value (cocklebur; Rate 62 g/ha, Postemergence) was 0, the “Plant response rating, Cocklebur” value (cocklebur; [3]) was 1 and the “Plant response rating, Ducksalad” value (duck salad; [4]) was 0. The “Ducksalad plant response rating” value (duck salad; [5]) was 0 and the “Plant response rating, Ducksalad” value (duck salad; [6]) was 4.

From US6737383B1, “Herbicidal oxadiazolidines” (priority 1999, dated 2004)
